Laboratory results taken from patent US20110039721A1, “METHOD FOR PREDICTION ABOUT CARCINOGENICITY OF SUBSTANCE IN RODENT” (Chemicals Evaluation and Research Institute, priority 2007, published 2011).

Legend:
[1] = test system: mRNA expressed from the genes (A) to (D) in rat liver; experiment: Behavior of genes (mRNA expression level, oligo-DNA microarray) in rat liver after 28-day oral administration; assay type: in vivo; conditions: for Behavior of gene caused by administration of chemical substance, Gene No. 4846 / Behavior of gene caused by administration of chemical substance, Gene No. 2026 / Behavior of gene caused by administration of chemical substance, Gene No. 4218 / Behavior of gene caused by administration of chemical substance, Gene No. 6182 / Behavior of gene caused by administration of chemical substance, Gene No. 5600: gene group (A); for Behavior of gene caused by administration of chemical substance, Gene No. 4846: Unigene No. Rn.144554; for Behavior of gene caused by administration of chemical substance, Gene No. 2026 / Behavior of gene caused by administration of chemical substance, Gene No. 4218: Unigene No. Rn.167075; for Behavior of gene caused by administration of chemical substance, Gene No. 6182: Unigene No. Rn.5834; for Behavior of gene caused by administration of chemical substance, Gene No. 5600: Unigene No. Rn.9836; for Behavior of gene caused by administration of chemical substance, Gene No. 1494 / Behavior of gene caused by administration of chemical substance, Gene No. 2045 / Behavior of gene caused by administration of chemical substance, Gene No. 2203: gene group (B); for Behavior of gene caused by administration of chemical substance, Gene No. 1494: Unigene No. Rn.1430; for Behavior of gene caused by administration of chemical substance, Gene No. 2045: Unigene No. Rn.19329; for Behavior of gene caused by administration of chemical substance, Gene No. 2203: Unigene No. Rn.21240; for Behavior of gene caused by administration of chemical substance, Gene No. 533 / Behavior of gene caused by administration of chemical substance, Gene No. 725 / Behavior of gene caused by administration of chemical substance, Gene No. 1163 / Behavior of gene caused by administration of chemical substance, Gene No. 4973 / Behavior of gene caused by administration of chemical substance, Gene No. 4095 / Behavior of gene caused by administration of chemical substance, Gene No. 1334 / Behavior of gene caused by administration of chemical substance, Gene No. 6620 / Behavior of gene caused by administration of chemical substance, Gene No. 6303 / Behavior of gene caused by administration of chemical substance, Gene No. 5878 / Behavior of gene caused by administration of chemical substance, Gene No. 1131 / Behavior of gene caused by administration of chemical substance, Gene No. 1562 / Behavior of gene caused by administration of chemical substance, Gene No. 1741 / Behavior of gene caused by administration of chemical substance, Gene No. 893 / Behavior of gene caused by administration of chemical substance, Gene No. 6026 / Behavior of gene caused by administration of chemical substance, Gene No. 154 / Behavior of gene caused by administration of chemical substance, Gene No. 1993 / Behavior of gene caused by administration of chemical substance, Gene No. 813 / Behavior of gene caused by administration of chemical substance, Gene No. 2494 / Behavior of gene caused by administration of chemical substance, Gene No. 2546 / Behavior of gene caused by administration of chemical substance, Gene No. 3776 / Behavior of gene caused by administration of chemical substance, Gene No. 3929 / Behavior of gene caused by administration of chemical substance, Gene No. 1119 / Behavior of gene caused by administration of chemical substance, Gene No. 6742 / Behavior of gene caused by administration of chemical substance, Gene No. 5634: gene group (C); for Behavior of gene caused by administration of chemical substance, Gene No. 533: Unigene No. Rn.106184; for Behavior of gene caused by administration of chemical substance, Gene No. 725: Unigene No. Rn.108075; for Behavior of gene caused by administration of chemical substance, Gene No. 1163: Unigene No. Rn.11766; for Behavior of gene caused by administration of chemical substance, Gene No. 4973: Unigene No. Rn.118529; for Behavior of gene caused by administration of chemical substance, Gene No. 4095: Unigene No. Rn.119024; for Behavior of gene caused by administration of chemical substance, Gene No. 1334 / Behavior of gene caused by administration of chemical substance, Gene No. 6620: Unigene No. Rn.120914; for Behavior of gene caused by administration of chemical substance, Gene No. 6303: Unigene No. Rn.123063; for Behavior of gene caused by administration of chemical substance, Gene No. 5878: Unigene No. Rn.143213; for Behavior of gene caused by administration of chemical substance, Gene No. 1131: Unigene No. Rn.144946; for Behavior of gene caused by administration of chemical substance, Gene No. 1562: Unigene No. Rn.14744; for Behavior of gene caused by administration of chemical substance, Gene No. 1741: Unigene No. Rn.1647; for Behavior of gene caused by administration of chemical substance, Gene No. 893: Unigene No. Rn.164817; for Behavior of gene caused by administration of chemical substance, Gene No. 6026: Unigene No. Rn.167685; for Behavior of gene caused by administration of chemical substance, Gene No. 154: Unigene No. Rn.185941; for Behavior of gene caused by administration of chemical substance, Gene No. 1993: Unigene No. Rn.18728; for Behavior of gene caused by administration of chemical substance, Gene No. 813: Unigene No. Rn.201760; for Behavior of gene caused by administration of chemical substance, Gene No. 2494: Unigene No. Rn.23969; for Behavior of gene caused by administration of chemical substance, Gene No. 2546: Unigene No. Rn.24561; for Behavior of gene caused by administration of chemical substance, Gene No. 3776: Unigene No. Rn.43232; for Behavior of gene caused by administration of chemical substance, Gene No. 3929: Unigene No. Rn.4620; for Behavior of gene caused by administration of chemical substance, Gene No. 1119: Unigene No. Rn.9757; for Behavior of gene caused by administration of chemical substance, Gene No. 6742: Unigene No. Rn.9779; for Behavior of gene caused by administration of chemical substance, Gene No. 5634: Unigene No. Rn.9862; for Behavior of gene caused by administration of chemical substance, Gene No. 5726: gene group (D), Unigene No. Rn.9939
In short: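 Liver mRNA levels were compared with matched vehicle groups, with a shift of at least 1.5-fold up or down deemed significant unless its direction disagreed with other carcinogens. Test substances were dosed orally by gavage daily for 28 days to 5-week-old male F344 rats, four per group.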

liver = conditions: in vivo; cited from earlier work
rodent = conditions: in vivo; cited from earlier work

Structure (SMILES) | Behavior of gene caused by administration of chemical substance, Gene No. 4846 [1] | Behavior of gene caused by administration of chemical substance, Gene No. 2026 [1] | Behavior of gene caused by administration of chemical substance, Gene No. 4218 [1] | Behavior of gene caused by administration of chemical substance, Gene No. 6182 [1] | Behavior of gene caused by administration of chemical substance, Gene No. 5600 [1] | Behavior of gene caused by administration of chemical substance, Gene No. 1494 [1] | Behavior of gene caused by administration of chemical substance, Gene No. 2045 [1] | Behavior of gene caused by administration of chemical substance, Gene No. 2203 [1] | Behavior of gene caused by administration of chemical substance, Gene No. 533 [1] | Behavior of gene caused by administration of chemical substance, Gene No. 725 [1] | Behavior of gene caused by administration of chemical substance, Gene No. 1163 [1] | Behavior of gene caused by administration of chemical substance, Gene No. 4973 [1] | Behavior of gene caused by administration of chemical substance, Gene No. 4095 [1] | Behavior of gene caused by administration of chemical substance, Gene No. 1334 [1] | Behavior of gene caused by administration of chemical substance, Gene No. 6620 [1] | Behavior of gene caused by administration of chemical substance, Gene No. 6303 [1] | Behavior of gene caused by administration of chemical substance, Gene No. 5878 [1] | Behavior of gene caused by administration of chemical substance, Gene No. 1131 [1] | Behavior of gene caused by administration of chemical substance, Gene No. 1562 [1] | Behavior of gene caused by administration of chemical substance, Gene No. 1741 [1] | further results
Nc1ccc(N)c(Cl)c1.O=S(=O)(O)O [TS058, 2-Chloro-p-phenylenediamine SO4] | − | − | − | − | − | − | + | − | − | − | + | − | − | − | − | − | − | − | − | − | Behavior of gene caused by administration of chemical substance, Gene No. 893 [1]: −; Behavior of gene caused by administration of chemical substance, Gene No. 6026 [1]: −; Behavior of gene caused by administration of chemical substance, Gene No. 154 [1]: +; Behavior of gene caused by administration of chemical substance, Gene No. 1993 [1]: −; Behavior of gene caused by administration of chemical substance, Gene No. 813 [1]: −; Behavior of gene caused by administration of chemical substance, Gene No. 2494 [1]: +; Behavior of gene caused by administration of chemical substance, Gene No. 2546 [1]: +; Behavior of gene caused by administration of chemical substance, Gene No. 3776 [1]: −; Behavior of gene caused by administration of chemical substance, Gene No. 3929 [1]: −; Behavior of gene caused by administration of chemical substance, Gene No. 1119 [1]: +; Behavior of gene caused by administration of chemical substance, Gene No. 6742 [1]: −; Behavior of gene caused by administration of chemical substance, Gene No. 5634 [1]: +; Behavior of gene caused by administration of chemical substance, Gene No. 5726 [1]: −; Liver carcinogenicity (liver): Cr−; Carcinogenicity (rodent): C−
Cc1cc(N)ccc1N.O=S(=O)(O)O [TS060, 2,5-Toluenediamine SO4] | − | − | − | − | − | − | − | − | − | − | + | − | − | − | − | − | − | + | − | − | Behavior of gene caused by administration of chemical substance, Gene No. 893 [1]: +; Behavior of gene caused by administration of chemical substance, Gene No. 6026 [1]: −; Behavior of gene caused by administration of chemical substance, Gene No. 154 [1]: −; Behavior of gene caused by administration of chemical substance, Gene No. 1993 [1]: −; Behavior of gene caused by administration of chemical substance, Gene No. 813 [1]: −; Behavior of gene caused by administration of chemical substance, Gene No. 2494 [1]: −; Behavior of gene caused by administration of chemical substance, Gene No. 2546 [1]: −; Behavior of gene caused by administration of chemical substance, Gene No. 3776 [1]: −; Behavior of gene caused by administration of chemical substance, Gene No. 3929 [1]: +; Behavior of gene caused by administration of chemical substance, Gene No. 1119 [1]: −; Behavior of gene caused by administration of chemical substance, Gene No. 6742 [1]: −; Behavior of gene caused by administration of chemical substance, Gene No. 5634 [1]: +; Behavior of gene caused by administration of chemical substance, Gene No. 5726 [1]: −; Liver carcinogenicity (liver): Cr−; Carcinogenicity (rodent): C−
